Consider 23 compounds from patent US20230002361A1, “2H-INDAZOLE DERIVATIVES AND THEIR USE IN THE TREATMENT OF DISEASE” (BIOGEN MA INC., priority 2019, published 2023).

Counter-ions that a name gives are not always drawn. Like-named read-outs stand apart in the source and are kept apart here.

For orientation: IC50 means the concentration at which inhibition is half-maximal.

One series has as its target T1, MDR1 (P-gp) (Homo sapiens, UniProt P08183).
T1 construct: host or cells: MDCK cells
As to the kind of experiment: MDR1-MDCK assay (efflux ratio). In kind it is in vitro ADME. Conditions: human, MDCK-MDR1, 1 μM compound, 120 minutes incubation; read-out: MDR1-MDCK Efflux Ratio; (B-A/A-B). The method in brief: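 Human MDR1-transfected MDCK monolayers, cultured 7 days on transwell inserts with TEER checked, were dosed with compound at 1 μM in HBSS-HEPES. Transport was measured in both A-B and B-A directions. Efflux ratio came from the directional permeabilities, with mass balance also calculated.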

A further series concerns the target T2, IRAK4 (Homo sapiens, UniProt Q9NWZ3).
T2 construct: with 0.1 nM IRAK4, 1.6 μM of biotinylated peptide substrate and 10 μM ATP
T2 sequence (Q9NWZ3 1-460): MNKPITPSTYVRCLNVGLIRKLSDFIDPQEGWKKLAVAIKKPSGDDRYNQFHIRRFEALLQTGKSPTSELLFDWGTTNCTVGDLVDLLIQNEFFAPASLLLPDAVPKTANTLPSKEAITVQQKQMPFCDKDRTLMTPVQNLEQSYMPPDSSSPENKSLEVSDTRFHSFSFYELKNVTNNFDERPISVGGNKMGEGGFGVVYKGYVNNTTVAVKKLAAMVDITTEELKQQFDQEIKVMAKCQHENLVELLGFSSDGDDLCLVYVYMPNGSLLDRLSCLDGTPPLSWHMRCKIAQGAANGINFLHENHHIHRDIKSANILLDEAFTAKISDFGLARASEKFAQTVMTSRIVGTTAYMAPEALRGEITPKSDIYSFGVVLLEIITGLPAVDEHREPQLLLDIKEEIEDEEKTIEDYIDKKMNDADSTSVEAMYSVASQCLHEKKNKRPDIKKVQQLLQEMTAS
The experiment in a line: IRAK4 MSD Biochemical Assay (1 mM ATP, 2 h). Conditions: room temperature. In a few lines: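 Run with 1 mM ATP and […] for 2 h, then quenched with EDTA, pH 8. The phosphorylated biotinylated peptide was captured on streptavidin plates and detected with anti-phospho-threonine antibody plus Sulfo-Tag secondary by MSD electrochemiluminescence.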

Setting [1] is: read-out: IRAK4 MSD Biochemical Assay (1 mM ATP, 2 h) IC50.
[2] abbreviates: IRAK4 MSD Biochemical Assay (1 mM ATP, 2 h) IC50 (nM).

T1 sequence (P08183 whole entry): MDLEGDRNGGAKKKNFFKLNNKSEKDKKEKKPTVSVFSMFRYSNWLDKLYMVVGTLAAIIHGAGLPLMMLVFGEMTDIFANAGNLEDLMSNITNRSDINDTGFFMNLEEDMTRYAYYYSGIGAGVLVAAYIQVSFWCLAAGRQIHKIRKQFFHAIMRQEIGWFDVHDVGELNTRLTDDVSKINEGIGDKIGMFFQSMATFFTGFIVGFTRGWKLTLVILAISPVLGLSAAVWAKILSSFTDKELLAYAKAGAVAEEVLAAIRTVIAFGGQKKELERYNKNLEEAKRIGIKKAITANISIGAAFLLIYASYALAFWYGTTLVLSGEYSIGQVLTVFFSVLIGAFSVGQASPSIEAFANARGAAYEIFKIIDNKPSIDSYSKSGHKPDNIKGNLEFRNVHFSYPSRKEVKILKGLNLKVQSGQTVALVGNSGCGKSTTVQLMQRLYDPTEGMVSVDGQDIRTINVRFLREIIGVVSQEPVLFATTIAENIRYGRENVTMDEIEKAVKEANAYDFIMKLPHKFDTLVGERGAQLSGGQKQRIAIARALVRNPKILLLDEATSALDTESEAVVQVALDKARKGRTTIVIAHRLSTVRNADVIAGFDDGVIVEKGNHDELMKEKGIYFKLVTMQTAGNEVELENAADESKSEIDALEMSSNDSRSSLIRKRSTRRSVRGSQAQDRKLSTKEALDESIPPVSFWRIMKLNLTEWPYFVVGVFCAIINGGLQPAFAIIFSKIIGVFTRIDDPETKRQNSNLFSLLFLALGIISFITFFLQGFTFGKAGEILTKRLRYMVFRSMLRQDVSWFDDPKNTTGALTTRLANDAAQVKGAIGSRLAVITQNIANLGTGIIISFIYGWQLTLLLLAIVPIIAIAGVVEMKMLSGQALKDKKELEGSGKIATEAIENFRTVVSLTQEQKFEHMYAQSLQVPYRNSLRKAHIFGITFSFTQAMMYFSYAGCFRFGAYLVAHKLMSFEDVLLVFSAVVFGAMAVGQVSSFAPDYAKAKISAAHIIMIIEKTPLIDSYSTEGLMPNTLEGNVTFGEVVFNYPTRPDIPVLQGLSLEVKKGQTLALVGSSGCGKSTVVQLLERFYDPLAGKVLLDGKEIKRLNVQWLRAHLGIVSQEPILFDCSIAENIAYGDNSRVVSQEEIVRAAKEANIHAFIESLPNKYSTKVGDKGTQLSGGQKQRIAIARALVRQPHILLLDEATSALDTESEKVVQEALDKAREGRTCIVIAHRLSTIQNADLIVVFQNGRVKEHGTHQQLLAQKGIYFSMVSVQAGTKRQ

Consider `CC(C)Oc1cc2nn([C@]34CC[C@](C)(C3)OC4)cc2cc1C(=O)Nc1cnn2cccnc12` (single isomer, unassigned) [Example 127], for which, at MDR1 (P-gp), the efflux ratio at 120 min, 1 μM came out at 1. At IRAK4 (setting [1]), the half-inhibitory concentration (IC50) is 0.4 nM.
For `COc1cc2nn(C[C@@H]3CCOC3)cc2cc1C(=O)Nc1cccc(C(F)F)n1` (single isomer, unassigned) [Example 19] the same measures were 1 and 5.4 nM.
The matching figures for `Cn1cccc(NC(=O)c2cc3cn(C[C@H]4CCOC4)nc3nc2OC2CCCC2)c1=O` (single isomer, unassigned) [Example 114]: 1.5 and 1.8 nM.
The matching figures for `CC(C)Oc1cc2nn([C@@H]3CCOC(C)(C)C3)cc2cc1C(=O)Nc1cccc(C(F)F)n1` (single isomer, unassigned) [Example 46]: 1.2 and 0.3 nM.
On to `CC12CCC(n3cc4cc(C(=O)Nc5ccn(C(F)F)n5)c(OC5CCC5)cc4n3)(CC1)CO2` [Example 139, 6-cyclobutoxy-N-(1-(difluoromethyl)-1H-pyrazol-3-yl)-2-(1-methyl-2-oxabicyclo[2.2.2]octan-4-yl)-2H-indazole-5-carboxamide], for which the efflux ratio at 120 min, 1 μM at MDR1 (P-gp) is 0.8. Further, on IRAK4 (setting [1]), the IC50 stood at 0.9 nM.
The matching figures for `CC(C)Oc1cc2nn(C34COC(C)(C3)C4)cc2cc1C(=O)Nc1cnn2cccnc12` [Example 93, 6-Isopropoxy-2-(1-methyl-2-oxabicyclo[2.1.1]hexan-4-yl)-N-(pyrazolo[1,5-a]pyrimidin-3-yl)-2H-indazole-5-carboxamide]: 1.4 and 0.4 nM.
In the case of `CC(C)Oc1nc2nn(CC3CCOC3)cc2cc1C(=O)Nc1cnn2cccnc12` (stereo not shown) [Example 54, 6-Isopropoxy-N-(pyrazolo[1,5-a]pyrimidin-3-yl)-2-((tetrahydrofuran-3-yl)methyl)-2H-pyrazolo[3,4-b]pyridine-5-carboxamide], the efflux ratio at 120 min, 1 μM at MDR1 (P-gp) turned out to be 3.6. The midpoint of inhibition against IRAK4 (setting [2]), the IC50, lay at 1.3 nM.
Take `CC(C)Oc1nc2nn(CC3CCOC3)cc2cc1C(=O)Nc1cc(F)cn(C)c1=O` (stereo not shown) [Example 81, N-(5-fluoro-1-methyl-2-oxo-1,2-dihydroxypyridin-3-yl)-6-isopropxy-2-((tetrahydrofuran-3-yl)methyl)-2H-pyrazolo[3,4-b]pyridine-5-carboxamide]: at MDR1 (P-gp), the efflux ratio at 120 min, 1 μM was 5.9. Besides, the IC50 on IRAK4 (setting [1]) is 9.9 nM.
For `CO[C@H]1C[C@H](n2cc3cc(C(=O)Nc4cccc(C(F)F)n4)c(OC(C)C)cc3n2)C1` [Example 74, N-(6-(difluoromethyl)pyridin-2-yl)-6-isopropoxy-2-((1R,3R)-3-methoxycyclobutyl)-2H-indazole-5-carboxamide] the same measures were 0.5 and 0.4 nM.
For `CC(C)Oc1c(C(=O)Nc2cccc(C(F)F)n2)cc2cn(C3CCOCC3)nc2c1Cl` [Example 124, 7-Chloro-N-(6-(difluoromethyl)pyridin-2-yl)-6-isopropoxy-2-(tetrahydro-2H-pyran-4-yl)-2H-indazole-5-carboxamide Trifluoroacetate] the same measures were 1.1 and 20 nM.
The matching figures for `COc1cccc(NC(=O)c2cc(OC)c3nn(CCC(C)(C)O)cc3c2)n1.Cl` [Example 14, 2-(3-Hydroxy-3-methylbutyl)-7-methoxy-N-(6-methoxypyridin-2-yl)-2H-indazole-5-carboxamide hydrochloride]: 24.4 and 247 nM.
Regarding `COc1cc2nn(C34COC(C)(C3)C4)cc2cc1C(=O)Nc1cccc(C(F)F)n1` [Example 87, N-(6-(difluoromethyl)pyridin-2-yl)-6-methoxy-2-(1-methyl-2-oxabicyclo[2.1.1]hexan-4-yl)-2H-indazole-5-carboxamide trifluoroacetate], the efflux ratio at 120 min, 1 μM on MDR1 (P-gp) was 0.7. At IRAK4 (setting [1]), the IC50 was determined as 2.4 nM.
On to `COc1cccc(NC(=O)c2cc3cn(CC4CCOC4)nc3cn2)n1.O=C(O)C(F)(F)F` (stereo not shown) [Example 7, N-(6-methoxypyridin-2-yl)-2-((tetrahydrofuran-3-yl)methyl)-2H-pyrazolo[3,4-c]pyridine-5-carboxamide Trifluoroacetate], for which the efflux ratio at 120 min, 1 μM on MDR1 (P-gp) worked out at 0.6. On IRAK4 (setting [1]), the IC50 is 1390 nM.
Turning to `CC(C)Oc1nc2nn(C[C@@H]3CCOC3)cc2cc1C(=O)Nc1cccc2ccnn12` (single isomer, unassigned) [Example 52], the efflux ratio at 120 min, 1 μM on MDR1 (P-gp) worked out at 1. The half-inhibitory concentration (IC50) on IRAK4 (setting [1]) was determined as 1 nM.
Turning to `Cc1cnc2c(NC(=O)c3cc4cn(C56COC(C)(C5)C6)nc4cc3OC3CCC3)cnn2c1` [Example 56, 6-Cyclobutoxy-2-(1-methyl-2-oxabicyclo[2.1.1]hexan-4-yl)-N-(6-methylpyrazolo[1,5-a]pyrimidin-3-yl)-2H-indazole-5-carboxamide Trifluoroacetate], the efflux ratio at 120 min, 1 μM at MDR1 (P-gp) worked out at 2. Also, at IRAK4 (setting [1]), the IC50 is 0.5 nM.
The matching figures for `COCCCn1cc2cc(C(=O)Nc3cnn4cccnc34)c(OC(C)C)cc2n1` [Example 35, 6-Isopropoxy-2-(3-methoxypropyl)-N-(pyrazolo[1,5-a]pyrimidin-3-yl)-2H-indazole-5-carboxamide]: 1.1 and 5 nM.
For `Cc1cnc2c(NC(=O)c3cc4cn(C[C@H]5CCOC5)nc4nc3OC(C)C)cnn2c1` (single isomer, unassigned) [Example 104] the same measures were 4.8 and 0.9 nM.
Regarding `CC(C)Oc1nc2nn(C[C@@H]3CCOC3)cc2cc1C(=O)Nc1cnn2cccnc12` (single isomer, unassigned) [Example 119], at MDR1 (P-gp), the efflux ratio at 120 min, 1 μM came out at 3. For the same compound, the IC50 against IRAK4 (setting [2]) was 1 nM.
Take `CC(C)Oc1cc2nn(CC34COC(C)(C3)C4)cc2cc1C(=O)Nc1cccc(C(F)F)n1.Cl` [Example 27, N-(6-(difluoromethyl)pyridin-2-yl)-6-isopropoxy-2-((1-methyl-2-oxabicyclo[2.1.1]hexan-4-yl)methyl)-2H-indazole-5-carboxamide hydrochloride]: the efflux ratio at 120 min, 1 μM at MDR1 (P-gp) came out at 1.3. The IC50 at IRAK4 (setting [1]) was determined as 5.4 nM.
The matching figures for `CC(C)Oc1cc2nn([C@]34CC[C@](C)(C3)OC4)cc2cc1C(=O)Nc1cccc(C(F)F)n1` (single isomer, unassigned) [Example 125]: 0.5 and 0.4 nM.
The matching figures for `CC(C)Oc1cc2nn(CC3CCOC3)cc2cc1C(=O)Nc1cnn2cccnc12` (stereo not shown) [Example 39, 6-Isopropoxy-N-(pyrazolo[1,5-a]pyrimidin-3-yl)-2-((tetrahydrofuran-3-yl)methyl)-2H-indazole-5-carboxamide]: 3.1 and 1.8 nM.
The matching figures for `CC(C)Oc1nc2nn([C@@H]3CCCOC3)cc2cc1C(=O)Nc1cnn2cccnc12` (single isomer, unassigned) [Example 120]: 0.9 and 0.5 nM.
Regarding `CCOc1cc2nn(CCC(C)(C)O)cc2cc1C(=O)Nc1cccc(C(F)F)n1` [Example 31, N-(6-(difluoromethyl)pyridin-2-yl)-6-ethoxy-2-(3-hydroxy-3-methylbutyl)-2H-indazole-5-carboxamide], the efflux ratio at 120 min, 1 μM on MDR1 (P-gp) was found to be 1.9. Also, on IRAK4 (setting [1]), the IC50 came to 0.7 nM.
